Experimental data published in US20090197819A1, “Compositions for improving and repairing skin” (priority 2007, published 2009).

Assays:
Fibroblast cell cultures = test: Recovery of ATP in cultured fibroblasts after hypoxic stress; assay type: cell-based; details: fibroblasts at about 80% confluence, six hours hypoxic atmosphere, fresh medium, inspected at 12, 24 and 48 hours; first experiment
Description: Based on this information, Applicants believe that the same effect might be shown in cell culture with skin cells. The first skin cell be tested in vitro was the fibroblast, the culture of which is well known. The Coriell Institute for medical research publishes a web site with detailed instructions, the teachings of which are incorporated by reference. (Http:/locus.umdnj.edu/cer/faq/fibro.html.) Fibroblast cell cultures were tested to determine an optimal level of ribose as compared to glucose control.
To determine a protective effect of ribose, test and control plates were grown to about 80% confluence and subjected to a simulated environmental stress, six hours under an hypoxic atmosphere. Following exposure, the medium was aspirated off the culture and fresh medium applied. Cultures were inspected at 12, 24 and 48 hours to determine recovery of ATP to pre-hypoxia levels.

skin = test: Preliminary application of ribose to skin without penetrant; assay type: in vivo; details: topical, no penetrant
Text: The skin is a barrier. Preliminary effects to determine the effect on improving skin by the application of ribose were unsuccessful, leading the Applicants to the realization that ribose may not have penetrated to the basal cells and dermis. To get penetration it is advantageous to provide a penetrant to increase the concentration of active ingredient at the dermis and epidermis. A preferred penetrant is ethanol, which will be incorporated into the composition at a concentration of 0.1 to 15%, most preferably 10% weight to volume. The active ingredient may be at a concentration of from 0.5 to 10%, preferably 1%, weight to volume.

lymphocytes = details: previously shown by Applicants; cited from earlier work
skeletal muscle = details: oral administration; cited from earlier work

## O=C[C@H](O)[C@H](O)[C@H](O)CO [D-ribose]
Fibroblast cell cultures
  recovery of ATP to pre-hypoxia levels (of base ATP levels): 19%
skin
  effect on improving skin by the application of ribose: unsuccessful
lymphocytes
  growth of lymphocytes in cell culture: stimulates the growth
Skeletal muscle
  ATP levels in skeletal muscle: raises ATP levels
